Measurements as given in patent US4939175A, “Use of N,N-dimethyl-1-[1-(4-chlorophenyl)cyclobutyl]-3-methylbutylamine” (priority 1988, dated 1990).
Where two headings read alike, the source gives them in different places.

Assays:
[1] = system: depletion of dopamine induced by MPTP in mice whole brain; assay: animal or person; type: in vivo, SlC: ddy strain male mice; details: Mus musculus, po, 168 h, read-out: Percentage of the amount of dopamine in the treated group against the amount of dopamine in the non-treated group
[2] = system: inhibition of conditioned avoidance response induced by reserpine in rats; assay: Inhibition of conditioned avoidance response induced by reserpine in rats; type: in vivo, Std-Wistar male rats; details: for Conditioned avoidance response 1 hour after administration of the test sample: reserpine 1 mg/kg, control 2; for Conditioned avoidance response before administration of reserpine: baseline before test sample; for Conditioned avoidance response 18 to 20 hours after administration of reserpine: reserpine 1 mg/kg i.p., before test sample
Protocol: Effect of the test samples on the inhibition of conditioned avoidance response induced by reserpine in rats
Std-Wistar male rats (8 to 9 week age) weighing of 270 to 300 g were fed under the conditions of 23±2° C., 60±10% R.H. and artificial lighting from 7 AM to 7 PM for a week, and then subjected to the test.
The test was carried out by using a shuttle box. The shuttle box used herein was a rectangular box, which was equipped with a buzzer for conditioned stimulus at the upper part and grids of 2 mm in diameter, for non-conditioned stimulus, at intervals of 1 cm on the floor, and divided into two equal sized compartments by a hurdle of 5 cm in height.
The schedule for inducing the conditioned avoidance response was controlled by a computer, and all the observed results of avoidance or escape response were recorded automatically.
The avoidance condition was carried out as follows:
After the conditioned stimulus of the buzzer with sound signal for 5 seconds, the non-conditioned stimulus of the foot shock was given for 5 seconds to rats. Each stimulus was stopped immediately, if the rat jumped over the hurdle to the other compartment during the conditioned or non-conditioned stimulus.
The above-mentioned rats were put on the trials for 25 times. Then the rats were given reserpine (1 mg/kg, intraperitoneally). The rats were tested for 15 times at the time of 18 to 20 hours after the reserpine administration, and then they were divided into several groups ([…]).
The test sample was dissolved in distilled water and administered orally to each group at 24 to 26 hours after the reserpine administration. For reference, distilled water as control sample, and amitriptyline and amantadine as test drugs were used.
At one hour after the test sample administration, the rats were put on the trials for 25 times and the conditioned avoidance responce was compared between the control group (distilled water administration), the test compound-administered group and the test drug-administered groups.

[3] = system: re-uptake of ^3 H-dopamine; assay: Re-uptake of 3H-dopamine in vitro (synaptosomes, P2 fraction of whole brain); type: biochemical, Std: Wistar strain male rat; details: rat brain synaptosomes, 37° C., 20 minutes
Protocol: Effect of the test samples on the re-uptake of ^3 H-dopamine in vitro
P2 fraction was prepared from the whole brain of Std: Wistar strain male rat. […] The obtained mixture was incubated at 37° C. for 20 minutes and then subjected to the suction filtration with Whatman GF/B filter paper.
The obtained filter paper was put in a vial containing 10 ml of toluene type scintillator and its radioactivity was measured by means of liquid scintillation counter. The amount of the specific re-uptake of ^3 H-dopamine was obtained by subtracting the amount of re-uptake at 0° C. as blank.

[4] = system: depletion of serotonin induced by p-chloroamphetamine; assay: Depletion of serotonin (5-HT) induced by p-chloroamphetamine (whole brain); type: in vivo, SlC:ddy mice; details: p-chloroamphetamine 10 mg/kg i.p., control 48 ± 6, **p < 0.01
Protocol: Effect of the test samples on the depletion of serotonin (hereinafter referred to as "5-HT") induced by p-chloroamphetamine
The test sample was administered orally to SlC:ddy made mice and after 60 minutes, p-chloroamphetamine (10 mg/kg) was injected intraperitoneally.
At 6 hours later, the mice were decapitated. The whole brain was rapidly removed and homogenized in 0.06M perchloric acid with N-methylserotonin (10 μg/ml) as an internal standard. The homogenate was centrifuged and then the amount of 5-HT in the supernatant was determined by high performance liquid chromatography with electrochemical detection.
Amitriptyline was used as the reference drug and distilled water was used as control sample.

[5] = system: circling behavior in rats with unilateral substantia nigra lesions; assay: Circling behavior in rats with unilateral substantia nigra lesions; type: in vivo, Std: Wistar male rats; details: 50 mg/kg oral, 2 hours after; control 0.1 ± 0.4
Protocol: Effect of the test samples on circling behavior in rats with unilateral substantia nigra lesions
Std: Wistar male rats (8 heads/group) were used. The rat with unilateral substantia nigra lesions was made by injecting 8 μg/4 μl of 6-hydroxydopamine to the right side of substantia nigra.
The test sample was administered orally to the rat. At 2 hours later, the number of circling behavior per 10 minutes was counted.
Amantadine was used as the reference drug and distilled water was used as control sample.

[6] = system: depletion of norepinephrine induced by 6-hydroxydopamine in rat heart; assay: Depletion of norepinephrine induced by 6-hydroxydopamine in rat heart; type: in vivo, Std: Wistar male rats; details: 6-hydroxydopamine 20 mg/kg i.p., control 20 ± 4, non-treatment 425 ± 49, **p < 0.01
Protocol: Effect of the test samples on the depletion of norepinephrine induced by 6-hydroxydopamine in rat heart.
The test sample was administered orally to Std: Wistar male rats and after 30 minutes, 6-hydroxydopamine (20 mg/kg) was injected intraperitoneally.
At 16 hours after injection of 6-hydroxydopamine, the rats were killed. The whole heart was rapidly removed and homogenized in 0.05M perchloric acid with isoproterenol (10 mg/ml) as an internal standard. The homogenate was centrifuged and then the amount of norepinephrine in the supernatant was determined by means of high performance liquid chromatography with electrochemical detection.
Desipramine was used as the reference drug and distilled water was used as control sample.

[7] = Acute toxicity, oral, mice; set-up: species or system SlC:ddy male mice; details: mouse, in vivo, read-out: Number of dead mice per 10 mice
Protocol: SlC:ddy male mice (10 heads/group) were used.
After the oral administration of the test smaple, desipramine was used as the test drug, to the mice, the number of the dead mice was counted at 0.5, 1, 2, 4, 18 and 24 hours respectively after the oral administration.

[8] = Experiment I, 10 mg/kg oral, MPTP 50 mg/kg s.c., control 71 ± 11, *P < 0.05, **P < 0.01
[9] = Experiment I, 30 mg/kg oral, MPTP 50 mg/kg s.c., control 71 ± 11, *P < 0.05, **P < 0.01

CNCCCC12CCC(c3ccccc31)c1ccccc12 [Maprotiline, maprotiline]
response vs control in vivo at 10 mg/kg [1]: 65 ± 17%
response vs control in vivo at 30 mg/kg [1]: 74 ± 17%

CN(C)CCC=C1c2ccccc2CCc2ccccc21 [Amitriptyline, amitriptyline]
response vs control in vivo at 10 mg/kg [1, 8]: 81 ± 15%
response vs control in vivo at 30 mg/kg [1, 9]: 77 ± 15%
Conditioned avoidance response 1 hour after administration of the test sample ([2]; 10 mg/kg oral): 1%
Conditioned avoidance response 1 hour after administration of the test sample ([2]; 40 mg/kg oral): 0%
Conditioned avoidance response before administration of reserpine ([2]; 10 mg/kg group): 93%
Conditioned avoidance response before administration of reserpine ([2]; 40 mg/kg group): 94%
Conditioned avoidance response 18 to 20 hours after administration of reserpine ([2]; 10 mg/kg group): 1%
Conditioned avoidance response 18 to 20 hours after administration of reserpine ([2]; 40 mg/kg group): 7%
IC50 ([3]; Experiment I): 7.7 µM
IC50 ([3]; Experiment II): 8.2 µM
Percentages of the amount of 5-HT in the treated group against the amount of 5-HT in the non-treated group ([4]; 10 mg/kg oral): 50 ± 4%
Percentages of the amount of 5-HT in the treated group against the amount of 5-HT in the non-treated group ([4]; 30 mg/kg oral): 56 ± 10%
Percentages of the amount of 5-HT in the treated group against the amount of 5-HT in the non-treated group ([4]; 90 mg/kg oral): 92 ± 8%

CN1CCN2c3ccccc3Cc3ccccc3C2C1 (stereo not drawn) [Mianserin, mianserin]
response vs control in vivo at 10 mg/kg [1]: 72 ± 16%
response vs control in vivo at 30 mg/kg [1]: 69 ± 8%

CN(C)CC/C=C1\c2ccccc2CSc2ccccc21 [Dosulepin, dosulepin]
response vs control in vivo at 10 mg/kg [1, 8]: 70 ± 13%
response vs control in vivo at 30 mg/kg [1, 9]: 77 ± 12%

CN(C)CCCN1c2ccccc2CCc2ccc(Cl)cc21 [Clomipramine, clomipramine]
response vs control in vivo at 10 mg/kg [1]: 74 ± 13%
response vs control in vivo at 30 mg/kg [1]: 74 ± 14%

CN(C)CCCN1c2ccccc2CCc2ccccc21 [Imipramine, imipramine]
IC50 ([3]; Experiment II): 15 µM

CN[C@@H](C)Cc1ccccc1 [Methamphetamine, methamphetamine]
response vs control in vivo at 3 mg/kg ([1]; Experiment I, 3 mg/kg oral, MPTP 50 mg/kg s.c., control 71 ± 11, *P < 0.05, **P < 0.01): 97 ± 14%
response vs control in vivo at 3 mg/kg ([1]; Experiment II, 3 mg/kg oral, MPTP 50 mg/kg s.c., control 88 ± 20, *P < 0.05): 102 ± 21%
response vs control in vivo at 3 mg/kg [1]: 91 ± 20%

NC12CC3CC(CC(C3)C1)C2 [Amantadine, amantadine]
response vs control in vivo at 10 mg/kg ([1]; Experiment II, 10 mg/kg oral, MPTP 50 mg/kg s.c., control 88 ± 20, *P < 0.05): 77 ± 21%
response vs control in vivo at 30 mg/kg ([1]; Experiment II, 30 mg/kg oral, MPTP 50 mg/kg s.c., control 88 ± 20, *P < 0.05): 64 ± 16%
Number of circling behavior per 10 min. [5]: 0.4 ± 0.7 per 10 min.
Conditioned avoidance response 1 hour after administration of the test sample ([2]; 10 mg/kg oral): 2%
Conditioned avoidance response 1 hour after administration of the test sample ([2]; 50 mg/kg oral): 38%
Conditioned avoidance response before administration of reserpine ([2]; 10 mg/kg group): 94%
Conditioned avoidance response before administration of reserpine ([2]; 50 mg/kg group): 95%
Conditioned avoidance response 18 to 20 hours after administration of reserpine ([2]; 10 mg/kg group): 3%
Conditioned avoidance response 18 to 20 hours after administration of reserpine ([2]; 50 mg/kg group): 3%

CNCCCN1c2ccccc2CCc2ccccc21 [Desipramine, desipramine]
Amount of Norepinephrine ([6]; 0.625 mg/kg oral): 35 ± 4 ng/g
Amount of Norepinephrine ([6]; 1.25 mg/kg oral): 74 ± 26 ng/g
Amount of Norepinephrine ([6]; 2.5 mg/kg oral): 211 ± 79 ng/g
response vs control in vivo at 10 mg/kg [1, 8]: 74 ± 15%
response vs control in vivo at 30 mg/kg [1, 9]: 79 ± 18%
mortality at 0.5 h ([7]; 200 mg/kg oral): 0%
mortality at 1 h ([7]; 200 mg/kg oral): 0%
mortality at 2 h ([7]; 200 mg/kg oral): 0%
mortality at 4 h ([7]; 200 mg/kg oral): 0%
mortality at 18 h ([7]; 200 mg/kg oral): 0%
mortality at 24 h ([7]; 200 mg/kg oral): 0%
mortality at 0.5 h ([7]; 800 mg/kg oral): 100%
mortality at 1 h ([7]; 800 mg/kg oral): 100%
mortality at 2 h ([7]; 800 mg/kg oral): 100%
mortality at 4 h ([7]; 800 mg/kg oral): 100%
mortality at 18 h ([7]; 800 mg/kg oral): 100%
mortality at 24 h ([7]; 800 mg/kg oral): 100%
